For the assay, the system named is M2 mutant viruses. Type of assay: cell-based, influenza A virus.

Molecules are shown by their SMILES. Entries after “also recorded” stand apart in the source; their conditions may differ.

As for `NC12CC3CC(CC(C3)C1)C2` [amantadine], the effect on replication entry is given as “either not affected or inhibited only slightly; also recorded: Substantial inhibition”.

The values are drawn from US8057806B2 (priority 2000, dated 2011).
